From patent publication US8952024B2, “Herbicidal pyrimidone derivatives” (E I du Pont de Nemours and Company, priority 2009, dated 2015)
Like-named read-outs stand apart in the source and are kept apart here.

Columns and labels:
Assay type in all cases: in vivo
[1] = test system: morningglory (Ipomoea spp.); experiment: Test A pre-/postemergence plant response; details: Ipomoea, 240 h, read-out: Plant response rating, Morningglory; for pest or weed control at 125 g/ha: 125 g ai/ha
Method in brief: (§1)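 Greenhouse pots of loam/sand received directed preemergence soil sprays or postemergence sprays (plants 2–10 cm, 1–2 leaf stage), compounds formulated in non-phytotoxic solvent with surfactant. Injury was rated visually versus untreated controls after about ten days on a 0 (no effect) to 100 (complete control) scale.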

[2] = test system: pigweed (Amaranthus retroflexus); experiment: Test A pre-/postemergence plant response; details: Amaranthus retroflexus, 240 h, read-out: Plant response rating, Pigweed; for pest or weed control at 125 g/ha: 125 g ai/ha; for pest or weed control at 500 g/ha: 500 g ai/ha, approx. ten days
Method in brief: as §1

[3] = test system: giant foxtail (Setaria faberii); experiment: Test B pre-/postemergence plant response
Method in brief: (§2)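 Seeds were sown in loam soil/sand blend and treated preemergence with compound in non-phytotoxic solvent mixture containing surfactant; postemergence sprays, same formulation, went onto plants 2 to 18 cm (1- to 4-leaf stage) in peat-based planting medium. Greenhouse 13 to 15 days, then visual rating versus untreated controls, 0 (no effect) to 100 (complete control).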

[4] = test system: goosegrass (Eleusine indica); experiment: Test B pre-/postemergence plant response
Method in brief: as §2

[5] = test system: johnsongrass (Sorghum halepense); experiment: Test B pre-/postemergence plant response
Method in brief: as §2

[6] = test system: morningglory (Ipomoea coccinea); experiment: Test B pre-/postemergence plant response
Method in brief: as §2

[7] = test system: wheat (Triticum aestivum); experiment: Test B pre-/postemergence plant response
Method in brief: as §2

[8] = test system: woolly cupgrass (Eriochloa villosa); experiment: Test B pre-/postemergence plant response
Method in brief: as §2

[9] = test system: barnyardgrass (Echinochloa crus-galli); experiment: Test B flooded paddy test
Method in brief: (§3)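 Flooded-pot test: water raised to 3 cm above soil when treating, compound put in the water, level unchanged thereafter. Plants were at 2 leaves. Readout after 13 to 15 days, visual, relative to controls; 0 signifies no effect and 100 complete control.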

[10] = test system: ducksalad (Heteranthera limosa); experiment: Test B flooded paddy test
Method in brief: as §3

rice (Oryza sativa) = experiment: Test B flooded paddy test
Method in brief: as §3

[11] = test system: umbrella sedge (Cyperus difformis); experiment: Test B flooded paddy test
Method in brief: as §3

[12] = post-emergence, Postemergence, 0 to 100 scale where 0 is no effect and 100 is complete control
[13] = pre-emergence, Preemergence, 0 to 100 scale, 0 = no effect, 100 = complete control
[14] = 62 g ai/ha, postemergence, 0 is no effect, 100 is complete control, 13 to 15 days
[15] = Flood, 31 g ai/ha, scale 0 to 100 (0 no effect, 100 complete control)

SMILES: O=C1CCCC(O)=C1C(=O)c1cnc(-c2ccccc2)n(C2CCCCC2)c1=O [Compound 128, 3-cyclohexyl-5-[(2-hydroxy-6-oxo-1-cyclohexen-1-yl)carbonyl]-2-phenyl-4(3H)-pyrimidinone]
- pest or weed control at 125 g/ha [1, 12]: 100%
- pest or weed control at 500 g/ha ([1]; post-emergence, Postemergence, 500 g ai/ha, 0 to 100 scale, 0 = no effect, 100 = complete control, approx. ten days): 100%
- pest or weed control at 125 g/ha [1, 13]: 80%
- pest or weed control at 125 g/ha [2, 12]: 100%
- pest or weed control at 500 g/ha ([2]; post-emergence, Postemergence, 0 to 100 scale, 0 = no effect, 100 = complete control): 100%
- pest or weed control at 125 g/ha [2, 13]: 80%
- pest or weed control at 500 g/ha ([2]; pre-emergence, Preemergence, visual injury, 0 to 100 scale (0 no effect, 100 complete control)): 100%
- Foxtail, Giant plant response rating (0 to 100 scale) [3, 14]: 95
- pest or weed control at 31 g/ha ([3]; Setaria faberi, post-emergence, Postemergence, 31 g ai/ha, 0 to 100 scale (0 no effect, 100 complete control), read-out: Plant response rating, Foxtail, Giant): 95%
- pest or weed control at 125 g/ha ([3]; Setaria faberi, post-emergence, Postemergence, 125 g ai/ha, scale 0 to 100 (0 no effect, 100 complete control), read-out: Plant response rating, Foxtail, Giant): 98%
- pest or weed control at 250 g/ha ([3]; Setaria faberi, post-emergence, Postemergence, 250 g ai/ha, scale 0 to 100 (0 no effect, 100 complete control), 13 to 15 days, read-out: Plant response rating, Foxtail, Giant): 98%
- Goosegrass plant response rating (0 to 100 scale) [4, 14]: 95
- pest or weed control at 31 g/ha ([4]; Eleusine indica, post-emergence, Postemergence, 31 g ai/ha, 0 to 100 scale (0 no effect, 100 complete control), read-out: Plant response rating, Goosegrass): 90%
- pest or weed control at 125 g/ha ([4]; Eleusine indica, post-emergence, Postemergence, 125 g ai/ha, scale 0 to 100 (0 no effect, 100 complete control), read-out: Plant response rating, Goosegrass): 98%
- pest or weed control at 250 g/ha ([4]; Eleusine indica, post-emergence, Postemergence, 250 g ai/ha, scale 0 to 100 (0 no effect, 100 complete control), 13 to 15 days, read-out: Plant response rating, Goosegrass): 98%
- Johnsongrass plant response rating (0 to 100 scale) [5, 14]: 70
- pest or weed control at 31 g/ha ([5]; Sorghum halepense, post-emergence, Postemergence, 31 g ai/ha, 0 to 100 scale (0 no effect, 100 complete control), read-out: Plant response rating, Johnsongrass): 70%
- pest or weed control at 125 g/ha ([5]; Sorghum halepense, post-emergence, Postemergence, 125 g ai/ha, scale 0 to 100 (0 no effect, 100 complete control), read-out: Plant response rating, Johnsongrass): 85%
- pest or weed control at 250 g/ha ([5]; Sorghum halepense, post-emergence, Postemergence, 250 g ai/ha, scale 0 to 100 (0 no effect, 100 complete control), 13 to 15 days, read-out: Plant response rating, Johnsongrass): 85%
- Morningglory plant response rating (0 to 100 scale) [6, 14]: 80
- pest or weed control at 31 g/ha ([6]; Ipomoea, post-emergence, Postemergence, 31 g ai/ha, 0 to 100 scale (0 no effect, 100 complete control), read-out: Plant response rating, Morningglory): 80%
- pest or weed control at 125 g/ha ([6]; Ipomoea, post-emergence, Postemergence, 125 g ai/ha, scale 0 to 100 (0 no effect, 100 complete control), read-out: Plant response rating, Morningglory): 90%
- pest or weed control at 250 g/ha ([6]; Ipomoea, post-emergence, Postemergence, 250 g ai/ha, scale 0 to 100 (0 no effect, 100 complete control), 13 to 15 days, read-out: Plant response rating, Morningglory): 90%
- Wheat plant response rating (0 to 100 scale) [7, 14]: 0
- plant injury at 31 g/ha ([7]; Triticum aestivum, post-emergence, Postemergence, 31 g ai/ha, 0 to 100 scale (0 no effect, 100 complete control), read-out: Plant response rating, Wheat): 0%
- plant injury at 125 g/ha ([7]; Triticum aestivum, post-emergence, Postemergence, 125 g ai/ha, scale 0 to 100 (0 no effect, 100 complete control), read-out: Plant response rating, Wheat): 0%
- plant injury at 250 g/ha ([7]; Triticum aestivum, post-emergence, Postemergence, 250 g ai/ha, scale 0 to 100 (0 no effect, 100 complete control), 13 to 15 days, read-out: Plant response rating, Wheat): 5%
- Cupgrass, Woolly plant response rating (0 to 100 scale) [8, 14]: 90
- pest or weed control at 31 g/ha ([8]; Eriochloa villosa, post-emergence, Postemergence, 31 g ai/ha, 0 to 100 scale (0 no effect, 100 complete control), read-out: Plant response rating, Cupgrass, Woolly): 85%
- pest or weed control at 125 g/ha ([8]; Eriochloa villosa, post-emergence, Postemergence, 125 g ai/ha, scale 0 to 100 (0 no effect, 100 complete control), read-out: Plant response rating, Cupgrass, Woolly): 90%
- pest or weed control at 250 g/ha ([8]; Eriochloa villosa, post-emergence, Postemergence, 250 g ai/ha, scale 0 to 100 (0 no effect, 100 complete control), 13 to 15 days, read-out: Plant response rating, Cupgrass, Woolly): 95%
- pest or weed control at 250 g/ha ([9]; Echinochloa crus-galli, 360 h, 250 g ai/ha, flooded paddy test, visual rating on 0 to 100 scale (0 no effect, 100 complete control) after 13 to 15 days, read-out: Plant response rating, Flood, Barnyardgrass): 40%
- pest or weed control at 62 g/ha ([9]; Echinochloa crus-galli, 360 h, Flood (flooded paddy test), 62 g ai/ha, scale of 0 to 100 where 0 is no effect and 100 is complete control, 13 to 15 days, read-out: Plant response rating, Barnyardgrass): 10%
- pest or weed control at 125 g/ha ([9]; Echinochloa crus-galli, 360 h, Flood (flooded paddy test), 125 g ai/ha, scale 0 to 100, 0 is no effect, 100 is complete control, 13 to 15 days, read-out: Plant response rating, Barnyardgrass): 15%
- Barnyardgrass plant response rating [9, 15]: 0
- Ducksalad plant response rating [10, 15]: 90
- pest or weed control at 250 g/ha ([10]; Heteranthera limosa, 360 h, 250 g ai/ha, flooded paddy test, visual rating on 0 to 100 scale (0 no effect, 100 complete control) after 13 to 15 days, read-out: Plant response rating, Flood, Ducksalad): 100%
- pest or weed control at 62 g/ha ([10]; Heteranthera limosa, 360 h, Flood (flooded paddy test), 62 g ai/ha, scale of 0 to 100 where 0 is no effect and 100 is complete control, 13 to 15 days, read-out: Plant response rating, Ducksalad): 95%
- pest or weed control at 125 g/ha ([10]; Heteranthera limosa, 360 h, Flood (flooded paddy test), 125 g ai/ha, scale 0 to 100, 0 is no effect, 100 is complete control, 13 to 15 days, read-out: Plant response rating, Ducksalad): 95%
- Rice plant response rating (rice (Oryza sativa); [15]): 0
- plant injury at 250 g/ha (rice (Oryza sativa); Oryza sativa, 250 g ai/ha, flooded paddy test, visual rating on 0 to 100 scale (0 no effect, 100 complete control) after 13 to 15 days, read-out: Plant response rating, Flood, Rice): 35%
- plant injury at 62 g/ha (rice (Oryza sativa); Oryza sativa, Flood (flooded paddy test), 62 g ai/ha, scale of 0 to 100 where 0 is no effect and 100 is complete control, 13 to 15 days, read-out: Plant response rating, Rice): 0%
- plant injury at 125 g/ha (rice (Oryza sativa); Oryza sativa, Flood (flooded paddy test), 125 g ai/ha, scale 0 to 100, 0 is no effect, 100 is complete control, 13 to 15 days, read-out: Plant response rating, Rice): 10%
- pest or weed control at 250 g/ha ([11]; Cyperus difformis, 360 h, 250 g ai/ha, flooded paddy test, visual rating on 0 to 100 scale (0 no effect, 100 complete control) after 13 to 15 days, read-out: Plant response rating, Flood, Sedge, Umbrella): 75%
- pest or weed control at 62 g/ha ([11]; Cyperus difformis, 360 h, Flood (flooded paddy test), 62 g ai/ha, scale of 0 to 100 where 0 is no effect and 100 is complete control, 13 to 15 days, read-out: Plant response rating, Sedge, Umbrella): 30%
- pest or weed control at 125 g/ha ([11]; Cyperus difformis, 360 h, Flood (flooded paddy test), 125 g ai/ha, scale 0 to 100, 0 is no effect, 100 is complete control, 13 to 15 days, read-out: Plant response rating, Sedge, Umbrella): 60%
- Sedge, Umbrella plant response rating [11, 15]: 0
